Reference: US20210060030A1, “METHOD FOR TREATING CANCER” (Epizyme, Inc., priority 2014, published 2021)
Entries after “also recorded” stand apart in the source; their conditions may differ.

Assays:
[1] = clinical; conditions: human, in vivo; for AUC(0-t): AUC0-12 hr
Description: Blood samples for PK and skin biopsies for PD analysis were collected. PD samples were stained with H3K27me3 specific antibody and percent change from baseline in H3K27Me3 positive cells was determined. PK/PD relationship was analyzed. Tumor assessments were performed every 8 weeks.
Doses administered were 100 mg BID as a suspension (n=3) or tablet (n=3) formulation and 200, 400, 800 and 1600 mg as tablet formulation.

[2] = system: H3K27Me3 positive cells in the epidermis; assay: Skin biopsy H3K27Me3 immunohistochemistry and PK/PD model; format: in vivo, human
Description: (§1) PK/PD relationship was analyzed. Tumor assessments were performed every 8 weeks.
Skin biopsies were collected predose (Cycle 1, Day 1) and predose prior to Cycle 2, Day 1 for immunohistochemistry analysis.
An inhibitory Emax PK/PD model was fit to describe this relationship.

[3] = system: advanced solid tumors or B cell lymphoma; assay: Phase 1 tumor assessments (anti-tumor activity); format: in vivo, human
Description: as §1

[4] = format: in vivo; conditions: dose escalation up to 1600 mg BID
Description: Phase 1 dose escalation is being performed to determine maximum tolerated dose (MTD) safety, PK, PD, and preliminary anti-tumor activity in patients (“pts”) with B cell lymphoma or advanced solid tumors.
as §1

[5] = system: ABC lymphoma cell lines; assay: Combination with drugs that target the BCR/PI3K pathways in ABC lymphoma cell lines; format: cell-based

CCN(c1cc(-c2ccc(CN3CCOCC3)cc2)cc(C(=O)NCc2c(C)cc(C)[nH]c2=O)c1C)C1CCOCC1 [EPZ-6438]
AUC0-12 hr ([1]; 100 mg): 337 ng·h/mL | Tmax ([1]; 100 mg): 1.0 h | AUC(0-t) ([1]; 100 mg): 467 ng·h/mL | Tmax ([1]; 100 mg, Tmax): 0.5 h | AUC(0-t) ([1]; 200 mg): 1250 ng·h/mL | Cmax ([1]; 200 mg, Cmax): 363 ng/mL | Tmax ([1]; 200 mg, Tmax): 1 h | half-life ([1]; 200 mg, t1/2): 3.42 h | AUC(0-t) ([1]; 400 mg): 1720 ng·h/mL | Cmax ([1]; 400 mg, Cmax): 476 ng/mL | Tmax ([1]; 400 mg, Tmax): 2 h | half-life ([1]; 400 mg, t1/2): 2.88 h | AUC ([1]; 800 mg): 4550 ng·h/mL | AUC(0-t) ([1]; 800 mg): 7800 ng·h/mL | Cmax ([1]; 800 mg, Cmax): 1730 ng/mL | Tmax ([1]; 800 mg, Tmax): 2 h | half-life ([1]; 800 mg, t1/2): 3.81 h | Cmax ([1]; 1600 mg): 4125 ng/mL | AUC(0-t) ([1]; 1600 mg): 18900 ng·h/mL | Tmax ([1]; 1600 mg, Tmax): 2 h | half-life ([1]; 1600 mg, t1/2): 3.67 h | half-life ([1]; mean EPZ-6438 terminal half-life (t½)): 3 to 6 h | Tmax ([1]; po, Tmax): 1 to 2 h | half-life ([1]; po, half-life): ~4 h | half-life ([1]; terminal half-life (t½)): 3 to 6 h | maximal inhibition (Imax) of H3K27Me3 positive cells in skin ([2]; inhibitory Emax PK/PD model estimate): −44.4% | exposure associated with 50% of maximal inhibition (IC50) ([2]; inhibitory Emax PK/PD model estimate, AUC exposure): 487 ng·h/mL | exposure associated with 90% of maximal inhibition (IC90) ([2]; model predicted, AUC exposure): 4421 ng·h/mL | H3K27Me3 positive cells in skin ([2]; skin biopsies, Cycle 2 Day 1 vs predose baseline): exposure-related decrease; also recorded: consistent decrease | Maximum tumor change ([3]; 100 mg dose group): −78% | Maximum tumor change ([3]; 200mg dose group): −87% | Partial responses in evaluable NHL pts ([3]; 1 transformed DLBCL, 100mg BID, and 1 PMBL, 200mg BID): 2 of 4 | MTD [4]: has not been reached | effect of combination with drugs that target the BCR/PI3K pathways [5]: no effect observed
